How the values were obtained:
L1210 tumor cells = experiment: In vivo antitumor activity in Murine L1210 tumor model (ascitic L1210 leukemia), ip administration; conditions: L1210, B6D2F1 mice
Method: The test articles and materials are presented below in Table 5.
Day 0, inoculate 6 groups of 5 male mice and 1 group of 9 male control animals with one million viable L1210 cells per mouse by ip injection. • 2. […] Each dose level represents one group of five mice. […] Control group contains 9 untreated mice.
3. Mice were monitored daily for deaths and or signs of clinical illness. The date of euthanasia was recorded for the purpose of experimental end-points. A total of 39 mice divided into 7 groups were studied. At the end point survival was assessed and expressed as % T/C (percent median survival of treated group: median survival of control group.)

L1210 cells = experiment: Survival of mice with implanted L1210 tumor cells: cyclic temperature vs non cyclic temperature cisplatin liposomes; format: in vivo; conditions: single bolus ip 6 mg/kg on day 5, L1210, DBA/2 mice
Method: DPPC (3.0 g) and cholesterol (1.2 g) were co-dissolved in 20 mL of ethanol. • 2.
Female DBA/2 mice (Charles Rivers) were used. Thirty (30) mice were injected with 2×10^6 L1210 cells ip on Day 0. On day 1, the mice were weighed and randomized into 3 groups of 10 mice. […] Survival was monitored. Mice were weighed daily after day 10. Mice that lost 20% or greater of their starting weight were euthanized by CO2 inhalation. The date of their death was recorded on data sheets. Median survival was calculated by Prism GraphPad.

mice = experiment: Maximum tolerated dose (MTD), single bolus ip injection; format: in vivo
[1] = Pharmacokinetics and organ distribution (Part II), platinum by ICP-MS; format: in vivo, mice; conditions: ip
Method: Sixty ICR mice (female, 7 weeks old) were divided into 4 groups. […] At each designed time point, three to four mice were anaesthetized with 70 mg/kg of Nembutal ip (e.g., 3, 20, and 40 min, and 2, 8, 24, 48, and 72 h). […] Organs including duodenum, kidney, liver, lung, and spleen were resected from the mice. The blood and organ samples were homogenized in distilled water (4-fold of the sample weight) and digested with nitric acid. The platinum concentration in each sample was measured by Inductively Coupled Plasma-Mass Spectrometer (ICP-MS). The pharmacokinetics profiles (FIGS. 3-7, all Y-axes are concentration of μg platinum in one gram of tissue or fluid per mg of injected dose) and parameters (Tables 3 and 4) of each formulation were simulated and calculated.

stage III ovarian cancer = conditions: ip, patients with stage III ovarian cancer and residual tumor masses of 2 cm or less; cited from earlier work
[2] = ip dose 3 mg/kg (1 mg/kg on days 3, 7, 11)
[3] = ip dose 4.5 mg/kg ([…] on days 3, 7, 11)

N.N.[Cl][Pt][Cl] [Cisplatin, cis-diamine-dichloroplatinum (II)]
% T/C (L1210 tumor cells; [2]): 196% | Median survival (L1210 tumor cells; [2]): 26.5 days | % T/C (L1210 tumor cells; [3]): 218% | Median survival (L1210 tumor cells; [3]): 29.5 days | Median survival (L1210 cells): 19.5 days | MTD (mice): 9 mg/kg | Circulation AUC ([1]; blood, normalised to injected dose): 7.08 µg·h/g/µg | Organ AUC, Duodenum ([1]; duodenum): 8.32 µg·h/g/µg | Organ AUC, Heart ([1]; heart): 2.67 µg·h/g/µg | Organ AUC, Kidney ([1]; kidney): 8.61 µg·h/g/µg | Organ Cmax, Kidney ([1]; kidney): 0.46 µg/g/µg | Organ AUC, Liver ([1]; liver): 28.99 µg·h/g/µg | Organ Cmax, Liver ([1]; liver): 0.71 µg/g/µg | Organ AUC, Lung ([1]; lung): 29.00 µg·h/g/µg | Organ Cmax, Lung ([1]; lung): 1.61 µg/g/µg | Organ AUC, Spleen ([1]; spleen): 10.45 µg·h/g/µg | survival compared with iv cisplatin (stage III ovarian cancer): significantly improves survival

Source: patent publication US20060246124A1, “Methods of treating cancer with lipid-based platinum compound formulations administered intraperitoneally” (priority 2004, published 2006)
